In patent publication US20250057790A1, “AN INJECTABLE PHARMACEUTICAL COMPOSITION FOR THE TREATMENT OF RESPIRATORY DISEASES IN ANIMALS” (priority 2021, published 2025):

Key:
[1] = system: microbes that cause respiratory disease in animals; test: Activity against the microbes that cause respiratory disease in animals (statement); assay type: cell-based
[2] = Injection site reactions in cattle; assay type: in vivo; details: injectable pharmaceutical compositions
Procedure: Cattle injected with injectable pharmaceutical compositions containing Compound (A) were evaluated for reactions at the injection site. These injection site reactions were compared to the injection site reactions of cattle injected with injectable pharmaceutical compositions containing Compounds (B) and (C). The compounds were formulated as aqueous solution injectable pharmaceutical compositions or as suspension injectable pharmaceutical compositions as indicated below. These formulations were prepared as described in Examples 1 and 2. Compound (A) was formulated as both an aqueous solution using the free base form of the compound and as a suspense using the dihydrochloride salt of the compound. The composition of the aqueous solution injectable pharmaceutical composition was 15% w/v of Compound A, 15% w/v Poloxamer […], 6% w/v Benzyl Alcohol, 7% w/v Citric Acid, and QS Water. The composition of the suspension injectable pharmaceutical composition was 15% w/v Compound A (17.5% w/v HCl salt of Compound A), 0.1% w/v Kolliphor HS 15 and QS Miglyol 812. Compound A was administered to the animals in a dose of 10 mg/kilogram of body weight. Compound (B) was formulated as both an aqueous solution using the free base form of the compound and as a suspense using the dihydrochloride salt of the compound. The composition of the aqueous solution injectable pharmaceutical composition was 15% w/v of Compound B, 15% w/v Poloxamer […], 6% w/v Benzyl Alcohol, 7% w/v Citric Acid, and QS Water. The composition of the suspension injectable pharmaceutical composition was 15% w/v Compound B (17.5% w/v HCl salt of Compound B), 0.1% w/v Kolliphor HS 15 and QS Miglyol 812. Compound A was administered to the animals in a dose of 10 mg/kilogram of body weight. Compound (C) was formulated as both an aqueous solution using the free base form of the compound. The composition of the aqueous solution injectable pharmaceutical composition was 10% w/v of Compound C, 15% w/v Poloxamer […], 6% w/v Benzyl Alcohol, 7% w/v Citric Acid, and QS Water. Compound A was administered to the animals in a dose of 10 mg/kilogram of body weight. Injection sites were examined clinically by a trained person, Size of the swelling is measured with a ruler to the closest 0.5 cm horizontally, vertical and depth. These three measured values were multiplied to an estimation of the volume of the square box surrounding the observed swelling.

SMILES	Activity against the microbes that cause respiratory disease in animals [1]	Injection site reactions, overall assessment [2]	Injection site reactions, overall assessment ([2]; listed as Compound (C))	Injection site reactions, overall assessment ([2]; listed as Compound (B))
CC(C)(N)[C@H](NC(=O)c1ccc(C#Cc2ccc(CNCC(F)(F)F)cc2)cc1)C(=O)NO [Compound C]	active against the microbes that cause respiratory disease in animals	not resolved during the duration of the study	unacceptable injection site reactions	–
CC(C)(N)[C@H](NC(=O)c1ccc(C#Cc2ccc(CNC3CC3)cc2)cc1)C(=O)NO [Compound B]	active against the microbes that cause respiratory disease in animals	not resolved during the duration of the study	–	unacceptable injection site reactions
